Assay results: patent US20250064888A1, “COMPOSITIONS AND METHODS FOR TREATING CYTOKINE STORM” (SHENZHEN HIGHTIDE BIOPHARMACEUTICAL LTD., priority 2022, published 2025)
Marks after values point to notes of the source that are not given here.

Test system: LPS-induced mice model
Assay: Survival rate in LPS-induced mice model
Type: in vivo, C57BL/6J mice
Settings: G6 positive control, 4 mg/kg/day ig; for survival rate: first dose 1 h before LPS
Description: Male SPF C57BL/6J mice (6-8 weeks old with body weight about 18-20 g) used in the study were purchased from Shanghai SLAC Laboratory Animal Co., Ltd. All the care and use of animals followed 3R principles and relevant regulations.
One hundred (100) male C57BL/6J mice (18-20 g) were used for the study. After acclimated for 7 days, the inflammation mice model, which is characterized by a severe acute systemic inflammation response was established by a single tail vein injection of LPS (30 mg/kg).
The model animals were randomly divided into 7 groups: vehicle control group (G0), test group 1 (G1)˜test group 5 (G5) and positive control group (G6), of which there were 15 mice/group in G0˜G5 and 10 mice/group in G6. Day 1 was defined as the day on which tail vein injection of LPS (30 mg/kg), treatment start from the same day of the model establishment (Day 1) through Day 5 for consecutive 5 days (120 h after LPS induction). Except for the first dose on Day1 which were set at 5 min before LPS injection, 5 min after LPS injection, 1 hour before LPS injection and 1 hour after LPS injection respectively (Detailed information see the administration schedule in table 1), each groups have the same time schedules for administration (8 h after LPS injection for the second dose and bid with once in the morning, once in the evening for the following days). Vehicle and API were administered by back subcutaneous injection, DEX was administered by gavage.
Graphpad 8.0 software was used for data analysis. Log-rank (Mantel-Cox) test was used for statistical analysis of the survival rate between each treatment group and vehicle control group.

Question: Which survival rate (8 h) does the source give for `C[C@@H]1C[C@H]2[C@@H]3CCC4=CC(=O)C=C[C@]4(C)[C@@]3(F)[C@@H](O)C[C@]2(C)[C@@]1(O)C(=O)CO` [DEX, Dexamethasone] here?
Answer: Its survival rate is 100.0%.

Question: And the survival rate (16 h)?
Answer: Its survival rate is 100.0%.

Question: And the survival rate (24 h)?
Answer: Its survival rate is 100.0%.

Question: What about the survival rate (48 h) of the same compound?
Answer: The survival rate was 90.0%.

Question: What about the survival rate (72 h) of the same compound?
Answer: Its survival rate is 90.0%.

Question: And the survival rate (120 h)?
Answer: The survival rate was 90.0%**.

Question: And the “mice died until 72 h after LPS injection” value (10 mice/group)?
Answer: The value was 1 mouse.
